Some test systems named below: BT-549 breast; CCRF-CEM leukemia; HOP-62 NSCLC; K-562 leukemia; NCI-H460 lung; NCI-H522 lung; NCI/ADR-RES ovarian; SF-539 CNS; TK-10 renal; UACC-62 melanoma.
Experiment in all cases: NCI tumour cell line growth inhibition, 48 h

Where “and” joins values, the source holds several entries; their conditions need not be identical. Identical values can stand only once.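 The compound was tested at five concentrations on cells cultured in 96-well plates, with a 48-hour exposure period. GI50: concentration for 50% inhibition of growth. TGI: concentration producing complete growth inhibition.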 Where a SMILES comes first, the peptide text is derived from it. [ ]: non-standard residue; d: D form. The star is where a group is joined. ξ: configuration not given here. X3 = COc1ccc(C(N*)c2ccc(OC)cc2)cc1; NMeF = CN[C@@H](Cc1ccccc1)C(=O)O; NMeD = CN[C@@H](CC(=O)O)C(=O)O; NMeV = CN[C@H](C(=O)O)C(C)C; ξNMeV = CNC(C(=O)O)C(C)C; Boc = CC(C)(C)OC(=O)*; ξNMeA = CNC(C)C(=O)O; ξV = CC(C)C(N)C(=O)O Bounds are passed on as bounds.

Consider 8 compounds from PubChem BioAssay (NCI).

`COc1ccc(C(NC(=O)C[C@@H](C(=O)N(C)C(C)C(=O)O)N(C)C(=O)[C@@H]2CCCN2C(=O)[C@H](C(C)C)N(C)C(=O)C(C(C)C)N(C)C(=O)[C@H](Cc2ccccc2)N(C)C(=O)C(NC(=O)OC(C)(C)C)C(C)C)c2ccc(OC)cc2)cc1` (stereo partly drawn) (Boc-[ξV][NMeF][ξNMeV][NMeV]P[NMeD](X3)[ξNMeA]-OH): the TGI in the assay on BT-549 breast was 15.4 µM; in the assay with CCRF-CEM leukemia it was 17.5 µM and 41.6 µM; in the assay on HOP-62 NSCLC, 31.8 µM and 35.5 µM; in the assay on K-562 leukemia it was 26.9 µM and 43.8 µM; with NCI-H460 lung, 37.5 µM and 33.3 µM; with NCI-H522 lung it was 27.4 µM and 31.3 µM. In addition, the TGI is > 37.5 µM in the assay with NCI/ADR-RES ovarian; 17.9 µM and 39.8 µM with SF-539 CNS; 37.5 µM and 35.1 µM in the assay with TK-10 renal; 12.5 µM and 20.9 µM in the assay on UACC-62 melanoma. Besides, the GI50 with CCRF-CEM leukemia was 19.8 µM; with HOP-62 NSCLC, 18.5 µM; in the assay on K-562 leukemia it was 18.9 µM; with NCI-H460 lung, 17.8 µM; in the assay with NCI-H522 lung, 17.5 µM; in the assay on SF-539 CNS, 22.5 µM. Moreover, the GI50 in the assay with TK-10 renal is 20.6 µM; in the assay on UACC-62 melanoma it was 0.803 µM.
Consider `COc1ccc(/C=N/NC(=O)c2cccc3cc[nH]c23)cc1O`, for which the GI50 was 12.2 µM with BT-549 breast; 1.93 µM in the assay with CCRF-CEM leukemia; 11.2 µM in the assay with HOP-62 NSCLC; 2.17 µM with K-562 leukemia; 2.03 µM in the assay on NCI-H460 lung; 2.26 µM in the assay on NCI-H522 lung. Besides, the GI50 in the assay with NCI/ADR-RES ovarian was 1.86 µM; in the assay on SF-539 CNS it was 1.85 µM; in the assay on TK-10 renal, 14.4 µM; with UACC-62 melanoma, 0.878 µM. For the same compound, the TGI with BT-549 breast is > 78.8 µM; in the assay with CCRF-CEM leukemia, > 28.5 µM; with HOP-62 NSCLC it was > 100 µM; with K-562 leukemia, > 100 µM; in the assay with NCI-H460 lung it was > 68.3 µM; with NCI-H522 lung it was > 100 µM. Besides, the TGI in the assay with NCI/ADR-RES ovarian was > 100 µM; in the assay with SF-539 CNS it was > 100 µM; in the assay on TK-10 renal, > 100 µM; in the assay with UACC-62 melanoma it was > 35.1 µM.
For `CCN1C(=O)N(c2ccccc2)C2NC(=S)N(/N=C/C=C/c3ccccc3OC)C21` (stereo not drawn), the GI50 is 0.112 µM in the assay with BT-549 breast; 0.111 µM in the assay on CCRF-CEM leukemia; 0.127 µM in the assay on HOP-62 NSCLC; 0.0662 µM in the assay on K-562 leukemia; 0.111 µM with NCI-H460 lung; 0.0409 µM with NCI-H522 lung. The GI50 in the assay with NCI/ADR-RES ovarian is 0.0782 µM; with SF-539 CNS, 0.199 µM; in the assay with TK-10 renal it was 23.3 µM; in the assay on UACC-62 melanoma it was 0.0698 µM. The TGI with BT-549 breast was 3.41 µM; in the assay with CCRF-CEM leukemia, > 38.5 µM; in the assay on HOP-62 NSCLC, > 58.5 µM; in the assay on K-562 leukemia, > 100 µM; in the assay with NCI-H460 lung, > 36.2 µM; in the assay with NCI-H522 lung it was 0.189 µM. For the same compound, the TGI was > 72.4 µM in the assay on NCI/ADR-RES ovarian, 0.744 µM in the assay with SF-539 CNS, > 100 µM in the assay with TK-10 renal and > 100 µM with UACC-62 melanoma.
As to `COc1cccc(C(=O)NC(c2ccc(C)cc2)c2cc(Cl)c3cccnc3c2O)c1` (stereo not drawn), the GI50 in the assay with BT-549 breast was 1.32 µM; with CCRF-CEM leukemia, 0.366 µM; with HOP-62 NSCLC, 0.496 µM; in the assay on K-562 leukemia, 0.466 µM; in the assay on NCI-H460 lung it was 0.359 µM; in the assay with NCI-H522 lung, 0.291 µM. Besides, the GI50 in the assay on NCI/ADR-RES ovarian was 0.33 µM; in the assay on SF-539 CNS, 0.445 µM; in the assay with TK-10 renal, 0.393 µM; with UACC-62 melanoma, 0.357 µM. The TGI with BT-549 breast came out at 18.6 µM; in the assay with CCRF-CEM leukemia, 11.7 µM; in the assay on HOP-62 NSCLC, 9.58 µM; in the assay with K-562 leukemia, 54.8 µM; in the assay with NCI-H460 lung, 4.66 µM; in the assay on NCI-H522 lung, 1.65 µM. In addition, the TGI was > 88.6 µM in the assay on NCI/ADR-RES ovarian, 3.27 µM in the assay with SF-539 CNS, 4.8 µM in the assay on TK-10 renal and 3.13 µM in the assay on UACC-62 melanoma.
Take `N#Cc1c[nH]n2c(N=Nc3ccc(Cl)cc3)c(O)nc12`: the GI50 in the assay with BT-549 breast was 28.5 µM; in the assay with CCRF-CEM leukemia, 31.1 µM; in the assay on HOP-62 NSCLC it was 62.7 µM; in the assay with K-562 leukemia, 26.4 µM; in the assay on NCI-H460 lung it was 29.1 µM; in the assay on NCI-H522 lung it was 26.9 µM. Besides, the GI50 was 25 µM with NCI/ADR-RES ovarian, 26.9 µM in the assay with SF-539 CNS, 21.3 µM in the assay on TK-10 renal and 17.2 µM with UACC-62 melanoma. The TGI with BT-549 breast is 77.6 µM; in the assay with CCRF-CEM leukemia it was > 100 µM; in the assay with HOP-62 NSCLC, > 100 µM; in the assay on K-562 leukemia it was > 100 µM; with NCI-H460 lung, > 100 µM; in the assay with NCI-H522 lung, > 100 µM. Moreover, the TGI in the assay with NCI/ADR-RES ovarian amounted to 83.8 µM; in the assay with SF-539 CNS, 54.1 µM; with TK-10 renal it was 68.3 µM; with UACC-62 melanoma, 57 µM.
Take `COc1ccc(CCN=C2NC(=O)/C(=C/c3ccc4ncccc4c3)S2)cc1`: the GI50 with BT-549 breast, in the assay with CCRF-CEM leukemia, in the assay on HOP-62 NSCLC, in the assay with K-562 leukemia, in the assay with NCI-H460 lung and in the assay on NCI-H522 lung was > 25 µM throughout. In addition, the GI50 in the assay on NCI/ADR-RES ovarian, in the assay with SF-539 CNS, with TK-10 renal and in the assay with UACC-62 melanoma was > 25 µM throughout. Besides, the TGI in the assay on BT-549 breast, in the assay with CCRF-CEM leukemia, in the assay on HOP-62 NSCLC, with K-562 leukemia, in the assay with NCI-H460 lung and with NCI-H522 lung was > 25 µM throughout. Further, the TGI with NCI/ADR-RES ovarian, in the assay on SF-539 CNS, with TK-10 renal and in the assay on UACC-62 melanoma was > 25 µM each time.
On to `CC1=C2C(=C[C@@](C)(CO)[C@@H]2O)C(=O)[C@](C)(O)C12CC2`, for which the TGI with BT-549 breast was 0.0518 µM; in the assay on HOP-62 NSCLC, 0.0263 µM and 0.0432 µM; in the assay on NCI-H460 lung it was 0.00701 µM and 0.0108 µM; with NCI-H522 lung it was 0.0108 µM; in the assay on NCI/ADR-RES ovarian it was 0.0243 µM; in the assay on SF-539 CNS it was 0.0181 µM and 0.0175 µM. The TGI in the assay with TK-10 renal worked out at 0.106 µM; in the assay on UACC-62 melanoma it was 0.0265 µM. For the same compound, the GI50 in the assay with CCRF-CEM leukemia was 0.342 µM; in the assay with K-562 leukemia it was 0.0222 µM.
On to `CCn1c(-c2nonc2N)nc2c(C#CC(C)(C)O)nc(OC[C@@H](N)c3ccccc3)cc21`, for which the GI50 in the assay on BT-549 breast is 3.94 µM; in the assay on CCRF-CEM leukemia, 4.08 µM; in the assay with HOP-62 NSCLC, 6.09 µM; with K-562 leukemia, 5.19 µM; in the assay on NCI-H460 lung it was 3.97 µM; in the assay with NCI-H522 lung it was 4.28 µM. For the same compound, the GI50 with NCI/ADR-RES ovarian was 5.16 µM; with SF-539 CNS, 3.73 µM; in the assay with TK-10 renal, 5.09 µM; in the assay on UACC-62 melanoma it was 4.89 µM. Further, the TGI in the assay with BT-549 breast came to 7.48 µM; in the assay on CCRF-CEM leukemia, 23.3 µM; with HOP-62 NSCLC it was 10.2 µM; in the assay on K-562 leukemia it was 14.1 µM; in the assay with NCI-H460 lung it was 8.12 µM; in the assay on NCI-H522 lung it was 7.9 µM. Also, the TGI is 11.7 µM in the assay on NCI/ADR-RES ovarian, 7.71 µM with SF-539 CNS, 11.3 µM in the assay on TK-10 renal and 8.79 µM with UACC-62 melanoma.
